The values that follow come from ChEMBL document CHEMBL1125092, “Nonneurotoxic tetralin and indan analogues of 3,4-(methylenedioxy)amphetamine (MDA)” (J Med Chem, 1990).

Common to all, as to type: functional
The subject of assay [1] is Rattus norvegicus. In words: Hallucinogenic property was determined in groups of LSD trained rats and percentage of animals disrupted was reported at a dose 4.39 (umol/kg),(number of animals = 12).
In assay [2] the test system is Rattus norvegicus. In words: Hallucinogenic property was determined in groups of LSD trained rats and percentage of animals disrupted was reported at a dose 0.55 (umol/kg),(number of animals = 9).
Assay [3] has as its system Rattus norvegicus. The experiment in a line: Hallucinogenic property was determined in groups of LSD trained rats and percentage of animals disrupted was reported at a dose 2.2 (umol/kg),(number of animals = 8).
Assay [4] has as its system Rattus norvegicus. In words: Hallucinogenic property was determined in groups of LSD trained rats and percentage of animals disrupted was reported at a dose 2.74 (umol/kg),(number of animals = 8).
The subject of assay [5] is Rattus norvegicus. The experiment in a line: Hallucinogenic property was determined in groups of LSD trained rats and percentage of animals disrupted was reported at a dose 8.78 (umol/kg),(number of animals = 11).
In assay [6] the test system is Rattus norvegicus. In words: Hallucinogenic property was determined in groups of MDMA trained rats and percentage of animals disrupted was reported at 8.78 (umol/kg),(number of animals = 12.
Assay [7] deals with Rattus norvegicus. The experiment in a line: Hallucinogenic property was determined in groups of MDMA trained rats and percentage of animals disrupted was reported at a dose 1.1 (umol/kg),(number of animals = 8.
Assay [8] concerns Rattus norvegicus. The experiment in a line: Hallucinogenic property was determined in groups of MDMA trained rats and percentage of animals disrupted was reported at a dose 2.2 (umol/kg),(number of animals = 11.
Assay [9] concerns Rattus norvegicus. The experiment in a line: Hallucinogenic property was determined in groups of MDMA trained rats and percentage of animals disrupted was reported at a dose 2.74 umol/kg),(number of animals = 12.
For assay [10], the system named is Rattus norvegicus. The experiment in a line: Hallucinogenic property was determined in groups of MDMA trained rats and percentage of animals disrupted was reported at a dose 3.29 (umol/kg),(number of animals =10.
The subject of assay [11] is Rattus norvegicus. In words: Hallucinogenic property was determined in groups of MDMA trained rats and percentage of animals disrupted was reported at a dose 4.39 (umol/kg),(number of animals = 9).
The test system of assay [12] is Rattus norvegicus. In words: Hallucinogenic property was determined in groups of MDMA trained rats and percentage of animals disrupted was reported at a dose 6.59 (umol/kg),(number of animals = 9.
The subject of assay [13] is Rattus norvegicus. In words: Hallucinogenic property was determined in groups of MDMA trained rats and percentage of animals disrupted was reported at a dose 7.69 (umol/kg),(number of animals = 12).
Assay [14] concerns Rattus norvegicus. In words: Hallucinogenic property was determined in groups of MDMA trained rats and percentage of animals selecting drug lever was reported at 13.18 (umol/kg),(number of animals = 5.
In assay [15] the test system is Rattus norvegicus. In words: Hallucinogenic property was determined in groups of LSD trained rats and percentage of animals disrupted was reported at a dose 6.59 (umol/kg),(number of animals = 15).
For assay [16], the system named is Rattus norvegicus. In words: Hallucinogenic property was determined in groups of LSD trained rats and percentage of animals disrupted was reported at 1.10 (umol/kg),(number of animals = 9).
In assay [17] the test system is Rattus norvegicus. In words: Tested for stimulus generation in rats trained to discriminate LSD from saline at a dose 0.55 (umol/kg),(number of animals = 9).
Assay [18] has as its system Rattus norvegicus. In words: Tested for stimulus generation in rats trained to discriminate LSD from saline at a dose 1.10 (umol/kg),(number of animals = 9).
The test system of assay [19] is Rattus norvegicus. The experiment in a line: Tested for stimulus generation in rats trained to discriminate LSD from saline at a dose 2.74 (umol/kg),(number of animals = 8).
Assay [20] deals with Rattus norvegicus. In words: Tested for stimulus generation in rats trained to discriminate LSD from saline at 2.2 (umol/kg),(number of animals = 8).
In assay [21] the test system is Rattus norvegicus. The experiment in a line: Tested for stimulus generation in rats trained to discriminate +/-MDMA from saline at 1.10 (umol/kg),(number of animals = 8).
Assay [22] deals with Rattus norvegicus. The experiment in a line: Tested for stimulus generation in rats trained to discriminate +/-MDMA from saline at 6.59 (umol/kg),(number of animals = 9).
In assay [23] the test system is Rattus norvegicus. The experiment in a line: Tested for stimulus generation in rats trained to discriminate +/-MDMA from saline at 7.69 (umol/kg),(number of animals = 12).
The subject of assay [24] is Rattus norvegicus. In words: Tested for stimulus generation in rats trained to discriminate +/-MDMA from saline at 8.78 (umol/kg),(number of animals = 12).
For assay [25], the system named is Rattus norvegicus. In words: Tested for disruption in more than 50% rats trained to discriminate LSD from saline at a dose 8.78(uM/kg) (no. of animals =11).
The subject of assay [26] is Rattus norvegicus. The experiment in a line: Tested for stimulus generation in rats trained to discriminate LSD from saline at a dose 6.59 (umol/kg),(number of animals = 15).
Assay [27] has as its system Rattus norvegicus. In words: Tested for stimulus generation in rats trained to discriminate +/-MDMA from saline at 2.2 (umol/kg),(number of animals = 11).
In assay [28] the test system is Rattus norvegicus. The experiment in a line: Tested for stimulus generation in rats trained to discriminate +/-MDMA from saline at 2.74 (umol/kg),(number of animals = 12).
The test system of assay [29] is Rattus norvegicus. In words: Tested for stimulus generation in rats trained to discriminate +/-MDMA from saline at 3.29 (umol/kg),(number of animals = 10).
Assay [30] deals with Rattus norvegicus. In words: Tested for stimulus generation in rats trained to discriminate +/-MDMA from saline at 4.39 (umol/kg),(number of animals = 9).
Assay [31] relates to Rattus norvegicus. The experiment in a line: Tested for stimulus generation in rats trained to discriminate LSD from saline at a dose 4.39 (umol/kg),(number of animals = 12).
Assay [32] concerns Rattus norvegicus. The experiment in a line: Hallucinogenic property was determined in groups of LSD trained rats and percentage of animals disrupted was reported at a dose 3.88 (umol/kg),(number of animals = 10).
Assay [33] has as its system Rattus norvegicus. In words: Percentage of animals disrupted was determined in groups of LSD trained rats at a dose of 10.67 (umol/kg),(no of animals = 5).
Assay [34] has as its system Rattus norvegicus. The experiment in a line: Hallucinogenic property was determined in groups of LSD trained rats and percentage of animals disrupted was reported at a dose 9.70 (umol/kg),(number of animals = 13).
In assay [35] the test system is Rattus norvegicus. In words: Hallucinogenic property was determined in groups of MDMA trained rats and percentage of animals disrupted was reported at a dose 11.64 (umol/kg),(number of animals = 6).
In assay [36] the test system is Rattus norvegicus. The experiment in a line: Hallucinogenic property was determined in groups of MDMA trained rats and percentage of animals disrupted was reported at a dose 3.88 (umol/kg),(number of animals = 11).
Assay [37] concerns Rattus norvegicus. The experiment in a line: Hallucinogenic property was determined in groups of MDMA trained rats and percentage of animals disrupted was reported at a dose 7.76 (umol/kg),(number of animals = 11).
The test system of assay [38] is Rattus norvegicus. The experiment in a line: Hallucinogenic property was determined in groups of LSD trained rats and percentage of animals disrupted was reported at a dose 7.77 (umol/kg),(number of animals = 15).
For assay [39], the system named is Rattus norvegicus. In words: Hallucinogenic property was determined in groups of LSD trained rats and percentage of animals disrupted was reported at 5.82 (umol/kg),(number of animals = 11).
Assay [40] relates to Rattus norvegicus. In words: Percentage of animals disrupted was determined in groups of MDMA trained rats at a dose 1.94 (umol/kg),(no of animals=10).
Assay [41] deals with Rattus norvegicus. In words: Tested for stimulus generation in rats trained to discriminate LSD from saline at a dose 3.88 (umol/kg),(number of animals = 10).
Assay [42] concerns Rattus norvegicus. In words: Tested for stimulus generation in rats trained to discriminate +/-MDMA from saline at 3.88 (umol/kg),(number of animals = 11).
The subject of assay [43] is Rattus norvegicus. The experiment in a line: Tested for stimulus generation in rats trained to discriminate +/-MDMA from saline at 1.94 (umol/kg),(number of animals = 10).
In assay [44] the test system is Rattus norvegicus. In words: Tested for stimulus generation in rats trained to discriminate +/-MDMA from saline at 7.76 (umol/kg),(number of animals = 11).
Assay [45] relates to Rattus norvegicus. The experiment in a line: Tested for stimulus generation in rats trained to discriminate LSD from saline at a dose 5.82 (umol/kg),(number of animals = 11).
Assay [46] has as its system Rattus norvegicus. The experiment in a line: Tested for stimulus generation in rats trained to discriminate LSD from saline at a dose 7.77 (umol/kg),(number of animals = 15).
The test system of assay [47] is Rattus norvegicus. The experiment in a line: Tested for stimulus generation in rats trained to discriminate LSD from saline at a dose 9.70 (umol/kg),(number of animals = 13).

As to `NC1CCc2c(ccc3c2OCO3)C1` (configuration not stated), the D was determined as 33% in assay [1]; 11% in assay [2]; 0% in assay [3]; 0% in assay [4]; 55% in assay [5]; 42% in assay [6]. For the same compound, the D in assay [7] was 38%; in [8] it was 27%; in assay [9], 33%; in assay [10], 20%; in [11], 11%; in [12] it was 11%. For the same compound, the D in assay [13] was 33%; in assay [14], 100%; in [15], 47%; in assay [16], 11%. The SDL is listed as 0% in assay [17]; 13% in assay [18]; 25% in [19]; 25% in assay [20]; 0% in assay [21]; 75% in assay [22]. Moreover, the SDL in [23] is given as 75%; in assay [24], 71%; in [25], 71%; in assay [26], 38%; in [27], 63%; in assay [28], 63%. Also, the SDL in assay [29] was 63%; in assay [30] it was 50%; in assay [31], 25%.
`COc1cc(C)c(OC)c2c1CC(N)CC2` (configuration not stated): the D in [32] is reported as 20%; in assay [33], 100%; in assay [34], 69%; in assay [35], 83%; in assay [36], 27%; in assay [37], 27%. Also, the results for the D in assay [38], in [39] and in [40] were 47%, 27% and 20%, respectively. The SDL in assay [41] is given as 25%; in [42] it was 50%; in assay [43], 38%; in [44] it was 38%; in [45], 38%; in [46], 13%. Also, the SDL in assay [47] stood at 0%.
